According to patent US7312358B2, “Pharmaceutically active sulfanilide derivatives” (Laboratoires Serono SA, priority 2000, dated 2007):

Legend:
hOT receptor = target: T1, hOT receptor (Homo sapiens, UniProt P30559); assay: In vitro competition binding assay on hOT receptor with scintillating proximity assay; details: membranes from HEK293EBNA cells expressing hOT receptor; radiolabel [125I]-OVTA; SPA; read-out: Binding Affinity Human OT-R Ki
T1 construct: expressed in transfected cells; host or cells: HEK293EBNA cells (membranes)
T1 sequence (P30559 1-389): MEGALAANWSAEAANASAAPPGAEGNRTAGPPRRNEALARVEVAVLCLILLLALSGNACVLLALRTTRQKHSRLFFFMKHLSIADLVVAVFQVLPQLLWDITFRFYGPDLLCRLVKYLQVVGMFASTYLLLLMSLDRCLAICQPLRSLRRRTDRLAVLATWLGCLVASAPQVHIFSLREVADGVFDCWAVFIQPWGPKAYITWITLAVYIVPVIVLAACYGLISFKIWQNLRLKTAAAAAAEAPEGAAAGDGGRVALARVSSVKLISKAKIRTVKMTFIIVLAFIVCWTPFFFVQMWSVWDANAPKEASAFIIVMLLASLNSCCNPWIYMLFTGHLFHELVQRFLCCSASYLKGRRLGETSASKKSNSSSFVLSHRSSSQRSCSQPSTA
Method in brief: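 SPA competition binding using HEK293EBNA membranes expressing hOT receptor (2-4 μg) with WGA beads and 0.2 nM [125I]-OVTA in 50 mM Tris-HCl pH 7.4, 5 mM MgCl2, 0.1% BSA, 30 min at room temperature. Non-specific binding with 1 μM oxytocin; compounds at 10 pM–30 μM; IC50 by nonlinear curve fitting.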

hOT-R = target: T2, hOT-R (Homo sapiens, UniProt P30559); assay: Inhibition of oxytocin mediated Ca2+-mobilization by FLIPR (HEK cells); format: cell-based; details: fluo-4, OT 40 nM
T2 construct: expressed in transfected cells; host or cells: HEK (Human Embryonic Kidney) cells
T2 sequence (P30559 1-389): T1 sequence (P30559 1-389)
Text: c) Functional Assay No. 1: Inhibition of Oxytocitn Mediated Ca^2+-Mobilization by FLIPR (Fluorescent Imaging Plate Reader)
FLIPR is a machine for fluorescence imaging using a laser that is capable of illuminating a 96-well plate and a means of simultaneously reading each well thus enabling rapid measurements on a large number of samples.
This assay intends to show the inhibition of the OT/OT-R mediated calcium mobilisation—being necessary to cause uterine contractions—by using test compounds of formula (I).
Preparing the plates: FLIPR-plates were pre-coated with PLL (Poly-L-Lysine) 10 μg/ml+0.1% gelatine to attach the HEK (Human Embryonic Kidney) cells for 30 min up to 2 days at 37° C. The cells were plated out into 96-well plates (60000 cells/well).
Labelling with fluo-4: […] fluo-4 (fluorescent marker) were dissolved in 20 μl pluronic acid (20% in DMSO). The dissolved fluo-4 was then diluted in 10 ml DMEM (Dubecco's Minimal Essential Medium-F12 medium without FCS (Fetal Calf Serum). The medium was removed from the plates, followed by one wash with DNEM-F12 medium. Now, 100 μl of the DMEM-F12 medium containing fluo-4 were added and the cells incubated for 1.5-2 h (HEK-cells). The cells now contain the fluorescent marker.
Buffer: 145 mM NaCl, 5 mM KCl, 1 mM MgCl2, 10 mM Hepes, 10 mM Glucose, EGTA (Ethylene-bis oxyethylene nitrilo tetraacetic acid). Adjust to pH 7.4.
Performance of the assay: A minimum of 80 μl/well of antagonists (5×) in the above buffer (1×) were prepared (96-well plates). The antagonists were added to the well-plates at different concentrations (30 μM, 10 μM, 1 μM, 300 nM, 100 nM, 10 nM, 1 nM, 100 pM, 10 pM).
OT is added at a concentration of 40 nM.
The fluorescent marker being sensitive to the amount of Ca^2+ mobilized within the cell may be quantified by the FLIPR machine.
The activities of the sulfanilide derivatives according to formula I were assessed using the above described in vitro biological assay. The values refer to the capacity of the example compounds according to formula I to effectively antagonize oxytocin-induced intracellular Ca^2+-mobilization mediated by the oxytocin receptor.

hV1a = hV1a (Homo sapiens, UniProt P37288); assay: In vitro competition binding assay on hV1a receptor with scintillating proximity assay; set-up: expressed in transfected cells; host or cells: CHO cells (membranes); details: membranes from CHO cells expressing hV1a receptor; radiolabel [125I]-LVA; SPA; read-out: Binding Affinity Human V1a Ki
Method: b) In Vitro Competition Binding Assay on hV1a Receptor with Scintillating Proximity Assay
This assays allows to determine the affinity of the test compounds for the V1a receptor. Membranes from CHO cells expressing the hV1a receptor were resuspended in buffer containing 50 mM Tris-HCl, pH 7.4, 5 mM MgCl2 and 0.1% BSA (w/v). The membranes (5-10 μg) were mixed with 0.2 mg wheat-germ aglutinin (WGA) SPA bead (type A) and 0.03 nM of the radiolabel [^125I]-LVA (LVA being Linear Vasopressin Antagonist and is an analogue of AVP for competition binding experiments). Non-specific binding was determined in the presence of 1 μM AVP. The total assay volume was 100 μl. The plates (Corning 0 NBS plate) were incubated at room temperature for 2 hours and counted on a Mibrobeta plate counter. The tests compounds were used in concentrations of 30 μM, 10 μM, 1 μM, 300 nM, 100 nM, 10 nM, 1 nM, 100 pM, 10 pM. The competition binding data were analysed using the iterative, nonlinear, curve-fitting program, Graph pad “Prism”.
The binding affinities to the Via receptor of the sulfanilide derivatives claimed in the formula I were assessed using the above described in vitro biological assay. The values refer to the binding affinity (IC50; HM) of the example compounds according to formula I to the V1a receptor. From the values shown in Table 1 it can be derived that said test compounds according to formula I do show a significant binding to the Via receptor.

Sequence of hV1a (P37288 whole entry): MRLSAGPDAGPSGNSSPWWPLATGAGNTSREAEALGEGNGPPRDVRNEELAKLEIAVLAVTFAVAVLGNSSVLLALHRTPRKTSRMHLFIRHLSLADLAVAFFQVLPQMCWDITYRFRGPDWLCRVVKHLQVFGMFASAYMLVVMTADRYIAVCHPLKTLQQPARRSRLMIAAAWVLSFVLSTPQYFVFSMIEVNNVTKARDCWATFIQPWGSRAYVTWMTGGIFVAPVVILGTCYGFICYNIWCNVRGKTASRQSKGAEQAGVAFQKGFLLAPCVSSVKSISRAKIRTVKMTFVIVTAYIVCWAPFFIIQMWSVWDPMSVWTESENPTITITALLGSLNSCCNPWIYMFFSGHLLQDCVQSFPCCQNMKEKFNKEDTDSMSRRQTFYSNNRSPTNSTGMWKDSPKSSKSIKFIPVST

Which Ki (hOT receptor) does the source give for `CCOc1ccc(S(=O)(=O)N(CC(=O)N/N=C2/C(=O)Nc3ccccc32)c2ccc(C)cc2)cc1` [Example 5, 4-ethoxy-N-(4-methylphenyl)-N-{2-oxo-2-[2-(2-oxo-1,2-dihydro-3H-indol-3-ylidene)hydrazino]ethyl}benzenesulfonamide] here?
The Ki was 17.3 nM.

And the IC50 (hOT-R)?
The IC50 was 55 nM.

And the Ki (hV1a)?
Its Ki is 750 nM.
